Read-outs that look alike come from different tables or passages of the source.
How the values were obtained:
[1] = target: T1, Human 11β HSD1 (Homo sapiens, UniProt P28845); assay: biochemical; type: biochemical; settings: for inhibition at 10 µM: read-out: % inhibition of Human 11β HSD1 @10 μM typical sd ± 5% N = 2
T1 construct: human hepatic microsomes were obtained from XenoTech, product H0610/Lot 0210078; tissue XenoTech H0610/Lot 0210078; host or cells: human liver (hepatic microsomes)
Description: Standard Operating Procedure for the 11β-Hydroxysteroid Dehydrogenase Type 1 cortisol Radioimmunoassay (11β HSD1 Cortisol RIA).
30 mM Tris-HCL, pH 7.2 containing 1 mM EDTA.
50 mM Tris-HCL, pH 8, containing 0.1 M NaCl and 0.1% gelatin.
Prepare 10 mM stock solutions in 100% DMSO at 100 times the required assay concentration. Dilute into assay buffer 1 in 25. Also dilute neat DMSO 1 in 25 into assay buffer for controls.
Dilute this 1 in 50 into assay buffer.
Prepare NADPH as a 1.8 mg/ml solution in assay buffer.
Mix these 3solutions 1:1:1 to make a solution of sufficient volume for 25 μl additions to each sample. Add 0.5 μCi tritiated cortisone per 25 μl and mix the solution well.
Dilute stock 20 mg/ml solution 1 in 100 with assay buffer.
Dilute stock antibody solution to 17 μg/ml in antibody binding buffer.
Make a 20 mg/ml solution in antibody binding buffer and chill on ice.
To a u-bottom polypropylene 96 well plate add: • 25 μl compound dilution or diluted DMSO to controls, NSB's and blanks • 10 μl 1 mM GA in DMSO (enzyme stop solution) to blanks • 25 μl substrate mixture to all samples • 50 μl diluted microsomes to all samples • Incubate plate for 30 min at 37° C. shaking p0 Add 10 μl enzyme stop solution to all wells except the blanks • Add 100 μl antibody solution to all wells except the NSB's, add antibody binding buffer to these wells • Incubate at 37° C. for 1 h • Chill plate on ice for 15 min • Add 50 μl/well charcoal solution and mix with an 8-channel pipette (4-5 aspirations) • Chill the plate on ice • Centrifuge at 4° C., 2000×g for 15 min • Transfer 100 μl supernatant into an Optiplate, also add 25 μl substrate mixture to 2 empty wells to indicate counting efficiency • Add 200 μl Microscint-40 to all wells and count on a Topcount Radioimmunoassay
The 11β HSD1 enzyme assay was carried out following the standard operating procedure described above in u-bottom polypropylene 96 well plates or 1.5 ml Eppendorf tubes as indicated for each experiment. Subsequent to stopping the enzyme reaction, 100 μl antibody prepared in buffer 3 unless otherwise indicated was added to test samples and 100 μl buffer 3 was added to the NSB samples. The samples were incubated for 1 hour at 37° C. and the chilled on ice for 15 mins. Dextran coated charcoal (50 μl/sample) prepared to the indicated concentration in buffer 3 was added and the samples were mixed (vortex for tubes and aspiration 5 times with an 8-channel pipette for 96 well plates) and chilled for a further 10 min. The samples were centrifuged at 2000×g for 15 min at 4° C. to pellet the charcoal. Aliquots of the supernatant (100 μl) were transferred to an Optiplate and counted on the Topcount in 150-200 μl Microscint 40. In some experiments, aliquots of supernatant were transferred to scintillation vials and counted on the Tricarb LSC in 5 ml Ultima Gold scintillant.

[2] = compound 10 μM, human hepatic microsomes, cortisone 175 nM, typical sd ± 5%, N = 2

T1 sequence (P28845 whole entry): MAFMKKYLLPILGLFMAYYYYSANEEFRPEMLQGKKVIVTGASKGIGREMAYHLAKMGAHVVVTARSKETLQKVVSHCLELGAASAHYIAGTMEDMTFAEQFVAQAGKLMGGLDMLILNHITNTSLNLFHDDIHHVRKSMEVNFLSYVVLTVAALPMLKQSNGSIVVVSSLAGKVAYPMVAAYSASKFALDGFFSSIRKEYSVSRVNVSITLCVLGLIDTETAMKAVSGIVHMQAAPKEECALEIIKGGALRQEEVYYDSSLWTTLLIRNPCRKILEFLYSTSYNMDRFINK

## CCCc1ccc(C(=O)Nc2ccc3c(c2)nc(C)n3C)cc1
other
  melting point: 214 to 218 °C

## Cc1c(Cl)cccc1S(=O)(=O)Nc1ccc2c(c1)OCCO2 [compound 990]
[1]
  inhibition at 10 µM: 73.3%

## Cc1ccc2cc(NS(=O)(=O)c3cc(Cl)ccc3Cl)ccc2n1 [compound 937]
[1]
  inhibition at 10 µM: 36.6%

## Cc1nc2c(Cl)c(NC(=O)Cc3ccc(Cl)cc3Cl)ccc2s1
other
  melting point: 257 to 258 °C

## O=C(Nc1ccc2c(c1)CCC2=O)c1ccc(-c2ccccc2)cc1
other
  melting point: 217 to 219 °C

## COc1cccc(NC(=O)Nc2ccc(S(=O)(=O)Nc3cc(C)on3)cc2)c1 [compound 556]
[1]
  inhibition at 10 µM: 46.2%

## O=C(Nc1ccc2c(c1)CCCC2=O)c1cc(Cl)cc(Cl)c1
other
  melting point: 226 to 228 °C

## Cc1nc2cc(CSc3cc(Cl)ccc3Cl)ccc2s1 [compound 1031]
[1]
  inhibition at 10 µM: 45.6%

## COc1ccc(S(=O)(=O)Nc2ccc(S(=O)(=O)NCCO)cc2)cc1 [compound 646]
[1]
  inhibition at 10 µM: 48.5%

## COc1ccc(S(=O)(=O)Nc2ccc(S(=O)(=O)NCCOS(=O)(=O)c3ccc(OC)cc3)cc2)cc1 [compound 647]
[1]
  inhibition at 10 µM: 34.5%

## COc1cccc(C(=O)Nc2ccc3c(c2)CCC3=O)c1
other
  melting point: 203 to 204 °C

## COc1ccc(S(=O)(=O)Nc2ccc(S(=O)(=O)Nc3cc(C)on3)cc2)cc1 [compound 555]
[1]
  inhibition at 10 µM: 53%

## COc1ccc(C(=O)NCCc2cccs2)cc1
other
  melting point: 109 to 111 °C

## COc1ccc(S(=O)(=O)Nc2ccc(S(=O)(=O)Nc3nc(C)cc(C)n3)cc2)cc1OC [compound 558]
[1]
  inhibition at 10 µM: 31.2%

## O=C(NCCc1cccs1)c1cc(Cl)ccc1Cl
other
  melting point: 99 to 100 °C

## Cc1nc2cc(N(C)C(=O)c3ccc(Cl)cc3Cl)ccc2n1C
other
  melting point: 245 to 247 °C

## COc1ccc(C(=O)Nc2ccc(C(=O)c3ccccc3)cc2)cc1
other
  melting point: 171 to 174 °C

## CCCc1ccc(S(=O)(=O)NCc2ccccn2)cc1 [compound 702]
[1]
  inhibition at 10 µM: 37.6%

## Cc1c(Cl)cccc1S(=O)(=O)Nc1ccc2scc(C)c2c1 [compound 1015]
[1]
  inhibition at 10 µM: 64.6%

## Cc1cnc2cc(NS(=O)(=O)c3cccc(Cl)c3C)ccc2n1
other
  melting point: 163 to 164 °C

## Cc1nc2cc(NC(=O)c3ccc(Cl)cc3Cl)ccc2n1C
other
  melting point: 275 to 277 °C

## CCCc1ccc(S(=O)(=O)Nc2ccc(OC)nc2)cc1
other
  melting point: 93 to 94 °C

## COc1ccc(C(=O)Nc2ccc3c(c2)CCCC3=O)cc1
other
  melting point: 163 to 166 °C

## CCCc1ccc(C(=O)Nc2ccc(C(C)=O)cc2)cc1
other
  melting point: 174 to 176 °C

## O=C(Nc1ccc2c(c1)CCC2=O)c1cc(Cl)ccc1Cl
other
  melting point: 218 to 221 °C

## Cc1cc(NS(=O)(=O)c2cccc(Cl)c2C)no1 [compound 825]
[1]
  inhibition at 10 µM: 23.2%

## CCCc1ccc(C(=O)Nc2ccc3sc(C)nc3c2Cl)cc1
other
  melting point: 184 °C

## CCCc1ccc(C(=O)Nc2ccc3sc(C)nc3c2)cc1 [compound 471]
[1]
  inhibition at 10 µM: 53.7%

## O=S(=O)(NCCO)c1ccc(NS(=O)(=O)c2ccc(Cl)cc2Cl)cc1 [compound 653]
[1]
  inhibition at 10 µM: 36.4%

## COC(=O)c1cc2cc(NS(=O)(=O)c3cccc(Cl)c3C)ccc2s1 [compound 971]
[1]
  inhibition at 10 µM: 49.6%

## COc1ccc(C(=O)Nc2ccc3c(c2)CCC3=O)cc1
other
  melting point: 237 to 238 °C

## COc1cccc(C(=O)Nc2ccc3c(c2)CCCC3=O)c1
other
  melting point: 142 to 143 °C

## CCCc1ccc(C(=O)Nc2ccc3c(c2)CCCC3=O)cc1
other
  melting point: 168 to 170 °C

## Cc1c(Cl)cccc1S(=O)(=O)Nc1ccc2c(c1)C(=O)N(C)C2=O [compound 979]
[1]
  inhibition at 10 µM: 54.1%

## O=C(NCCc1cccs1)c1cc(Cl)cc(Cl)c1
other
  melting point: 100 to 102 °C

## CCCc1ccc(S(=O)(=O)Nc2ccc(OC)nc2)cc1 [compound 577]
[1]
  inhibition at 10 µM: 54.6%

## Cc1c(Cl)cccc1S(=O)(=O)Nc1ccc2occ(C)c2c1 [compound 972]
[1]
  inhibition at 10 µM: 59.2%

## COc1ccc(S(=O)(=O)Nc2ccc(S(=O)(=O)NCCO)cc2)cc1OC [compound 649]
[1]
  inhibition at 10 µM: 26.3%

## CC1(C)[C@@H](OC(=O)CCC(=O)O)CC[C@]2(C)[C@H]3C(=O)C=C4[C@@H]5C[C@@](C)(C(=O)O)CC[C@]5(C)CC[C@@]4(C)[C@]3(C)CC[C@@H]12 [carbenoxolone, Carbenoxolone, reference compound]
[1]; 350 nM cortisone, 0.3% DMSO, RIA buffer (Buffer 3) (FIG. 23)
  times more active than is suggested by Barf et al. [14]: about 5 times

## Cc1c(Cl)cccc1S(=O)(=O)Nc1ccc2c(C)cc(=O)oc2c1 [compound 980]
[1]
  inhibition at 10 µM: 61.2%

## Cc1cc2cc(NS(=O)(=O)c3cccc(Cl)c3C)ccc2o1 [compound 1038]
[1]
  inhibition at 10 µM: 28.7%

## COC(=O)c1cc2cc(NS(=O)(=O)c3cccc(Cl)c3C)ccc2o1 [compound 973]
[1]
  inhibition at 10 µM: 33.1%

## CCCc1ccc(S(=O)(=O)Nc2ccc3nc(C)ccc3c2)cc1 [compound 936]
[1]
  inhibition at 10 µM: 42.3%

## CC(=O)Nc1ccc(S(=O)(=O)Nc2cc(C)on2)cc1 [compound 606]
[1]; [2]
  inhibition at 10 µM: 22.1%

## O=S(=O)(Nc1ccc2oncc2c1)c1cc(Cl)ccc1Cl [compound 920]
[1]
  inhibition at 10 µM: 27.5%

## CCCc1ccc(S(=O)(=O)Nc2ccc3nccnc3c2)cc1 [compound 958]
[1]
  inhibition at 10 µM: 58.1%

## Cc1noc2ccc(NS(=O)(=O)c3cc(Cl)ccc3Cl)cc12 [compound 876]
[1]
  inhibition at 10 µM: 23.6%

## Cc1ccc2cc(NS(=O)(=O)c3cccc(Cl)c3C)ccc2n1 [compound 935]
[1]
  inhibition at 10 µM: 20.7%

## Cc1cc(NS(=O)(=O)c2ccc(N)c(Cl)c2)no1 [compound 654]
[1]
  inhibition at 10 µM: 32.1%

## CCCc1ccc(C(=O)N(C)c2ccc3sc(C)nc3c2)cc1 [compound 472]
[1]
  inhibition at 10 µM: 71.4%

## Cc1c(Cl)cccc1S(=O)(=O)Nc1ccc2nccnc2c1 [compound 957]
[1]
  inhibition at 10 µM: 55.5%

## Cc1c(Cl)cccc1S(=O)(=O)Nc1ccc2c(c1)-c1ccccc1C2=O [compound 1033]
[1]
  inhibition at 10 µM: 62.6%

## Cc1cc(NS(=O)(=O)c2cc(Cl)ccc2Cl)no1 [compound 823]
[1]
  inhibition at 10 µM: 42.9%

## Cc1c(Cl)cccc1S(=O)(=O)Nc1ccc2[nH]ncc2c1 [compound 983]
[1]
  inhibition at 10 µM: 41.9%

## CC(=O)Nc1ccc(S(=O)(=O)Nc2cc(C)on2)cc1Cl [compound 645]
[1]
  inhibition at 10 µM: 42%

## CC(=O)Nc1nsc2ccc(NS(=O)(=O)c3cccc(Cl)c3C)cc12 [compound 929]
[1]
  inhibition at 10 µM: 31%

## CCCc1ccc(S(=O)(=O)Nc2ccc3nc(C)cnc3c2)cc1 [compound 956]
[1]
  inhibition at 10 µM: 64.8%

## Cc1cnc2cc(NS(=O)(=O)c3cccc(Cl)c3C)ccc2n1 [compound 955]
[1]
  inhibition at 10 µM: 60.8%

## Cc1c(Cl)cccc1S(=O)(=O)Nc1ccc2c(cnn2C)c1 [compound 988]
[1]
  inhibition at 10 µM: 56%

## CC(=O)Nc1ccc(S(=O)(=O)NNC(=O)CSc2ncnc3c(C)csc23)cc1 [compound 557]
[1]
  inhibition at 10 µM: 51.3%

## CCCc1ccc(S(=O)(=O)Nc2ccc3oncc3c2)cc1 [compound 919]
[1]
  inhibition at 10 µM: 25.4%

## CCCc1ccc(S(=O)(=O)N(CC2CCNCC2)S(=O)(=O)c2ccc(CCC)cc2)cc1 [compound 576]
[1]; [2]
  inhibition at 10 µM: 47.7%

## COc1cc(C)c(S(=O)(=O)Nc2ccc(S(=O)(=O)NCCOS(=O)(=O)c3c(C)cc(OC)c(C)c3C)cc2)c(C)c1C [compound 652]
[1]
  inhibition at 10 µM: 31.8%

## Cc1cc(NS(=O)(=O)c2ccc(NS(=O)(=O)c3ccc(Cl)cc3Cl)cc2)no1 [compound 644]
[1]
  inhibition at 10 µM: 37.1%

## Cc1nc2cc(NC(=O)c3cc(Cl)cc(Cl)c3)ccc2s1 [compound 520]
[1]
  inhibition at 10 µM: 43.5%
